Laboratory results reported in US8048927B2 (Besins Healthcare Luxembourg, priority 2004, dated 2011).

Assay: pharmacokinetics of 4-hydroxy tamoxifen gel in healthy premenopausal women (Example 3)
Type: in vivo, human
Details: for Plasma concentration of 4-hydroxy tamoxifen, Range: First cycle Day 1, 0 hr; for AUC0-24, Mean ± SD / Cav = AUC0-24/24, Mean ± SD / Cmax, Mean ± SD / tmax, Mean ± SD: last administration, day 25 of second cycle
Procedure: Each participant applied the gel daily for the duration of two menstrual cycles.
At the end of a menstrual cycle, each patient received a single dose, after which serial blood samples were collected at 0, 0.5, 1, 1.5, 2, 3, 4, 6, 12, 18, 24, 36, 48, and 72 hours.
On the first day of the following menstruation, treatment, which consisted of daily application of the gel over two menstrual cycles, began. Blood samples were collected 24 hours following the morning application of gel on days 7, 20 and 25 of the first and second cycles. On the last day of administration, day 25 of the second menstrual cycle, serial blood samples were collected prior to application and at 0.5, 1, 1.5, 2, 3, 4, 6, 12, 18, 24, 36, 48, and 72 hours after application of the gel.

**Q.** Which results are given for `CCC(=C(c1ccc(O)cc1)c1ccc(OCCN(C)C)cc1)c1ccccc1` [4-hydroxy tamoxifen, 1-[4-(2-N-dimethylaminoethoxy)phenyl]-1-(4-hydroxyphenyl)-2-phenylbut-1-ene]?
**A.** Plasma concentration of 4-hydroxy tamoxifen, Range (0.5 mg/day, gel 20 mg/100 g): (0-17.2) pg/mL; Plasma concentration of 4-hydroxy tamoxifen, Mean ± SD (0.5 mg/day, gel 20 mg/100 g, First cycle Day 7, 24 hr after application): 0.0064 ± 0.0056 ng/mL; Plasma concentration of 4-hydroxy tamoxifen, Mean ± SD (0.5 mg/day, gel 20 mg/100 g, First cycle Day 20, 24 hr after application): 0.0136 ± 0.0079 ng/mL; Plasma concentration of 4-hydroxy tamoxifen, Mean ± SD (0.5 mg/day, gel 20 mg/100 g, First cycle Day 25, 24 hr after application): 0.0239 ± 0.0234 ng/mL; Plasma concentration of 4-hydroxy tamoxifen, Mean ± SD (0.5 mg/day, gel 20 mg/100 g, Second cycle Day 7, 24 hr after application): 0.0252 ± 0.0161 ng/mL; Plasma concentration of 4-hydroxy tamoxifen, Mean ± SD (0.5 mg/day, gel 20 mg/100 g, Second cycle Day 20, 24 hr after application): 0.0157 ± 0.014 ng/mL; Plasma concentration of 4-hydroxy tamoxifen, Mean ± SD (0.5 mg/day, gel 20 mg/100 g, Second cycle Day 25, 0 hr (24 hours after Day 24 application, prior to final application)): 0.0108 ± 0.0099 ng/mL; Plasma concentration of 4-hydroxy tamoxifen, Mean ± SD (0.5 mg/day, gel 20 mg/100 g, Second cycle Day 25, 0.5 hr after application): 0.0109 ± 0.0074 ng/mL; Plasma concentration of 4-hydroxy tamoxifen, Mean ± SD (0.5 mg/day, gel 20 mg/100 g, Second cycle Day 25, 1 hr after application): 0.0104 ± 0.0078 ng/mL; Plasma concentration of 4-hydroxy tamoxifen, Mean ± SD (0.5 mg/day, gel 20 mg/100 g, Second cycle Day 25, 1.5 hr after application): 0.009 ± 0.0082 ng/mL; Plasma concentration of 4-hydroxy tamoxifen, Mean ± SD (0.5 mg/day, gel 20 mg/100 g, Second cycle Day 25, 2 hr after application): 0.0118 ± 0.0095 ng/mL; Plasma concentration of 4-hydroxy tamoxifen, Mean ± SD (0.5 mg/day, gel 20 mg/100 g, Second cycle Day 25, 3 hr after application): 0.01 ± 0.0079 ng/mL; Plasma concentration of 4-hydroxy tamoxifen, Mean ± SD (0.5 mg/day, gel 20 mg/100 g, Second cycle Day 25, 4 hr after application): 0.0092 ± 0.0083 ng/mL; Plasma concentration of 4-hydroxy tamoxifen, Mean ± SD (0.5 mg/day, gel 20 mg/100 g, Second cycle Day 25, 6 hr after application): 0.0114 ± 0.0085 ng/mL; Plasma concentration of 4-hydroxy tamoxifen, Mean ± SD (0.5 mg/day, gel 20 mg/100 g, Second cycle Day 25, 12 hr after application): 0.011 ± 0.0097 ng/mL; Plasma concentration of 4-hydroxy tamoxifen, Mean ± SD (0.5 mg/day, gel 20 mg/100 g, Second cycle Day 25, 18 hr after application): 0.0097 ± 0.0088 ng/mL; Plasma concentration of 4-hydroxy tamoxifen, Mean ± SD (0.5 mg/day, gel 20 mg/100 g, Second cycle Day 26, 24 hr after last application): 0.0124 ± 0.0094 ng/mL; Plasma concentration of 4-hydroxy tamoxifen, Mean ± SD (0.5 mg/day, gel 20 mg/100 g, Second cycle Day 26, 36 hr after last application): 0.0109 ± 0.0069 ng/mL; Plasma concentration of 4-hydroxy tamoxifen, Mean ± SD (0.5 mg/day, gel 20 mg/100 g, Second cycle Day 27, 48 hr after last application): 0.0121 ± 0.0065 ng/mL; Plasma concentration of 4-hydroxy tamoxifen, Mean ± SD (0.5 mg/day, gel 20 mg/100 g, Second cycle Day 28, 72 hr after last application): 0.0099 ± 0.0071 ng/mL; Plasma concentration of 4-hydroxy tamoxifen (0.5 mg/day, gel 20 mg/100 g, after the second cycle, +8 days, LOQ <5 pg/mL): <LOQ; Plasma concentration of 4-hydroxy tamoxifen, maximum (0.5 mg/day, gel 20 mg/100 g, after the second cycle, +12 days): (maximum 9.09) pg/mL; Plasma concentration of 4-hydroxy tamoxifen (0.5 mg/day, gel 20 mg/100 g, after the second cycle, +20 days): 0 ng/mL; AUC0-24, Mean ± SD (0.5 mg/day, gel 20 mg/100 g): 0.2563 ± 0.2053 ng·h/mL; Cav = AUC0-24/24, Mean ± SD (0.5 mg/day, gel 20 mg/100 g): 0.0107 ± 0.0085 ng/mL; Cmax, Mean ± SD (0.5 mg/day, gel 20 mg/100 g): 0.017 ± 0.0085 ng/mL; tmax, Mean ± SD (0.5 mg/day, gel 20 mg/100 g): 40 ± 81 h; Plasma concentration of 4-hydroxy tamoxifen, Range (1 mg/day, gel 20 mg/100 g): (0-13.9) pg/mL; Plasma concentration of 4-hydroxy tamoxifen, Mean ± SD (1 mg/day, gel 20 mg/100 g, First cycle Day 7, 24 hr after application): 0.0152 ± 0.0097 ng/mL; Plasma concentration of 4-hydroxy tamoxifen, Mean ± SD (1 mg/day, gel 20 mg/100 g, First cycle Day 20, 24 hr after application): 0.0173 ± 0.0095 ng/mL; Plasma concentration of 4-hydroxy tamoxifen, Mean ± SD (1 mg/day, gel 20 mg/100 g, First cycle Day 25, 24 hr after application): 0.0155 ± 0.0066 ng/mL; Plasma concentration of 4-hydroxy tamoxifen, Mean ± SD (1 mg/day, gel 20 mg/100 g, Second cycle Day 7, 24 hr after application): 0.0174 ± 0.0112 ng/mL; Plasma concentration of 4-hydroxy tamoxifen, Mean ± SD (1 mg/day, gel 20 mg/100 g, Second cycle Day 20, 24 hr after application): 0.0148 ± 0.0065 ng/mL; Plasma concentration of 4-hydroxy tamoxifen, Mean ± SD (1 mg/day, gel 20 mg/100 g, Second cycle Day 25, 0 hr (24 hours after Day 24 application, prior to final application)): 0.0157 ± 0.0171 ng/mL; Plasma concentration of 4-hydroxy tamoxifen, Mean ± SD (1 mg/day, gel 20 mg/100 g, Second cycle Day 25, 0.5 hr after application): 0.0135 ± 0.0091 ng/mL; Plasma concentration of 4-hydroxy tamoxifen, Mean ± SD (1 mg/day, gel 20 mg/100 g, Second cycle Day 25, 1 hr after application): 0.0108 ± 0.0066 ng/mL; Plasma concentration of 4-hydroxy tamoxifen, Mean ± SD (1 mg/day, gel 20 mg/100 g, Second cycle Day 25, 1.5 hr after application): 0.0118 ± 0.008 ng/mL; Plasma concentration of 4-hydroxy tamoxifen, Mean ± SD (1 mg/day, gel 20 mg/100 g, Second cycle Day 25, 2 hr after application): 0.0107 ± 0.0069 ng/mL; Plasma concentration of 4-hydroxy tamoxifen, Mean ± SD (1 mg/day, gel 20 mg/100 g, Second cycle Day 25, 3 hr after application): 0.0114 ± 0.0079 ng/mL; Plasma concentration of 4-hydroxy tamoxifen, Mean ± SD (1 mg/day, gel 20 mg/100 g, Second cycle Day 25, 4 hr after application): 0.0112 ± 0.0073 ng/mL; Plasma concentration of 4-hydroxy tamoxifen, Mean ± SD (1 mg/day, gel 20 mg/100 g, Second cycle Day 25, 6 hr after application): 0.0107 ± 0.0064 ng/mL; Plasma concentration of 4-hydroxy tamoxifen, Mean ± SD (1 mg/day, gel 20 mg/100 g, Second cycle Day 25, 12 hr after application): 0.0118 ± 0.0078 ng/mL; Plasma concentration of 4-hydroxy tamoxifen, Mean ± SD (1 mg/day, gel 20 mg/100 g, Second cycle Day 25, 18 hr after application): 0.0122 ± 0.0083 ng/mL; Plasma concentration of 4-hydroxy tamoxifen, Mean ± SD (1 mg/day, gel 20 mg/100 g, Second cycle Day 26, 24 hr after last application): 0.0186 ± 0.0142 ng/mL; Plasma concentration of 4-hydroxy tamoxifen, Mean ± SD (1 mg/day, gel 20 mg/100 g, Second cycle Day 26, 36 hr after last application): 0.0134 ± 0.0075 ng/mL; Plasma concentration of 4-hydroxy tamoxifen, Mean ± SD (1 mg/day, gel 20 mg/100 g, Second cycle Day 27, 48 hr after last application): 0.0125 ± 0.006 ng/mL; Plasma concentration of 4-hydroxy tamoxifen, Mean ± SD (1 mg/day, gel 20 mg/100 g, Second cycle Day 28, 72 hr after last application): 0.0099 ± 0.0058 ng/mL; T(1stC < LOQ), first timepoint at which the plasma concentration was below the limit of quantification, Mean ± SD (1 mg/day, gel 20 mg/100 g, after last administration): 274 ± 141 h; Plasma concentration of 4-hydroxy tamoxifen, Mean ± SD (1 mg/day, gel 20 mg/100 g, after the second cycle, +5 days): 0.0058 ± 0.0052 ng/mL; Plasma concentration of 4-hydroxy tamoxifen (1 mg/day, gel 20 mg/100 g, after the second cycle, +20 days, LOQ <5 pg/mL): <LOQ; AUC0-24, Mean ± SD (1 mg/day, gel 20 mg/100 g): 0.3009 ± 0.1908 ng·h/mL; Cav = AUC0-24/24, Mean ± SD (1 mg/day, gel 20 mg/100 g): 0.0125 ± 0.0079 ng/mL; Cmax, Mean ± SD (1 mg/day, gel 20 mg/100 g): 0.021 ± 0.004 ng/mL; tmax, Mean ± SD (1 mg/day, gel 20 mg/100 g): 24 ± 18 h; Plasma concentration of 4-hydroxy tamoxifen, Range (1 mg/day, gel 57 mg/100 g): (0-9.5) pg/mL; Plasma concentration of 4-hydroxy tamoxifen, Mean ± SD (1 mg/day, gel 57 mg/100 g, First cycle Day 7, 24 hr after application): 0.0144 ± 0.0131 ng/mL; Plasma concentration of 4-hydroxy tamoxifen, Mean ± SD (1 mg/day, gel 57 mg/100 g, First cycle Day 20, 24 hr after application): 0.0181 ± 0.0158 ng/mL
